We go through twelve compounds from ChEMBL document CHEMBL1201862, “PubChem BioAssay data set” (2004).

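1) Cells in 96-well plates. 2) Compound, 48 h, 5 concentrations. 3) Linear interpolation between surrounding doses. 4) Unreached endpoint = highest concentration. GI50: concentration for 50% inhibition of growth.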 The source made the active and inactive calls. Rule as the data show it: active = GI50 up to about 1.1 µM and inactive = higher.

Some test systems named below: 786-0; SF-268; NCI-H522; NCI-H23; SK-MEL-28; HOP-92; U-251; SW-620; ACHN; OVCAR-8; KM12; NCI-H226; M14; COLO 205; K562; HT-29; DU-145; NCI/ADR-RES; PC-3.
What all share (assay): inhibition of tumour cell growth, NCI panel, 48 h

For the compound `COc1ccc2nc3ccccc3c(NCCCCCCN(C)CCCl)c2c1`, the GI50 is 0.177 µM (active) with 786-0; 0.133 µM (active) in the assay on SF-268; 0.242 µM (active) in the assay with NCI-H522; 0.175 µM (active) with NCI-H23; 0.986 µM (active) in the assay on SK-MEL-28; 0.158 µM (active) with HOP-92. Also, the GI50 in the assay on U-251 was 0.286 µM (active); with SW-620, 0.0583 µM (active); in the assay with ACHN, 0.239 µM (active); with OVCAR-8 it was 0.296 µM (active); in the assay with KM12 it was 0.27 µM (active); with NCI-H226, 0.104 µM (active). Further, the GI50 was 0.834 µM (active) in the assay on M14, 0.265 µM (active) in the assay on COLO 205, 0.0582 µM (active) with K562 and 0.122 µM (active) in the assay on HT-29.

With `Cc1ccc(Nc2nc3c(s2)C(=O)c2ccccc2C3=O)c(C)c1`, the GI50 in the assay with 786-0 is 17.5 µM (inactive); in the assay on SF-268, 11.1 µM (inactive); with NCI-H522, 3.14 µM (inactive); with NCI-H23 it was 10.1 µM (inactive); in the assay on SK-MEL-28, 16.8 µM (inactive); in the assay with HOP-92 it was 9.48 µM (inactive). Besides, the GI50 in the assay on U-251 is 18.9 µM (inactive); in the assay on SW-620, 20 µM (inactive); in the assay on ACHN it was 15.7 µM (inactive); in the assay on OVCAR-8, 15.7 µM (inactive); in the assay on KM12, 16 µM (inactive); with NCI-H226 it was 12.1 µM (inactive). Besides, the GI50 with M14 is 14.3 µM (inactive); in the assay with COLO 205, 18.9 µM (inactive); in the assay on K562, 10.9 µM (inactive); in the assay with HT-29, 20.9 µM (inactive).

`O=c1[nH]c(=O)n([C@H]2C[C@@H](CO)[C@@H](O)C2)cc1I`: the GI50 in the assay on 786-0, in the assay with SF-268, with NCI-H522, in the assay on NCI-H23, in the assay on SK-MEL-28 and in the assay with HOP-92 was > 100 µM (inactive) throughout. The GI50 with U-251, with SW-620, in the assay with ACHN, in the assay on OVCAR-8, in the assay with KM12 and in the assay on NCI-H226 was > 100 µM (inactive) throughout. The GI50 with M14, with COLO 205, in the assay with K562 and with HT-29 was > 100 µM (inactive) throughout.

As to `CC(=O)O[C@H]1[C@@H]2[C@@H]3[C@@H](C[C@H]1C)[C@@H](C)CO[C@@]1(C)CC/C=C(/C)C[C@@H]2O[C@@H]31`, the GI50 in the assay with 786-0, with SF-268, with NCI-H522, in the assay on NCI-H23, in the assay on SK-MEL-28 and in the assay on HOP-92 was > 100 µM (inactive) each time. In addition, the GI50 in the assay with U-251, with SW-620, in the assay with ACHN, with OVCAR-8, with KM12 and in the assay on NCI-H226 was > 100 µM (inactive) each time. The GI50 in the assay on M14, in the assay on COLO 205, in the assay on K562 and with HT-29 was > 100 µM (inactive) each time.

With `CC[C@@H]1OC2(C)CC(S(=O)(=O)c3ccccc3O)CC1O2` (some centres undefined), the GI50 in the assay on 786-0, with SF-268, with NCI-H522, in the assay with NCI-H23, in the assay with SK-MEL-28 and in the assay with HOP-92 was > 100 µM (inactive) in each case. Moreover, the GI50 in the assay with U-251, in the assay on SW-620, in the assay on ACHN, in the assay on OVCAR-8, in the assay with KM12 and with NCI-H226 was > 100 µM (inactive) in each case. For the same compound, the GI50 with M14 is > 100 µM (inactive); in the assay with COLO 205, > 100 µM (inactive); in the assay on K562, > 100 µM (inactive); with HT-29, > 10 µM (inactive).

On to `CCOc1ccc(/C(C=O)=C(\Cl)c2ccc(OC)cc2)cc1`, for which the GI50 in the assay on 786-0 was > 100 µM (inactive); in the assay with SF-268, > 100 µM (inactive); in the assay on NCI-H522, > 27.2 µM (inactive); in the assay on NCI-H23, > 100 µM (inactive); in the assay on SK-MEL-28, > 100 µM (inactive); in the assay with DU-145, > 100 µM (inactive). The GI50 in the assay with HOP-92 was 69.3 µM (inactive); in the assay on U-251, > 57.7 µM (inactive); in the assay with SW-620 it was > 100 µM (inactive); in the assay with ACHN it was > 100 µM (inactive); with OVCAR-8, > 100 µM (inactive); in the assay with KM12, 56.6 µM (inactive). Also, the GI50 in the assay with NCI/ADR-RES was 77.4 µM (inactive); with NCI-H226, > 100 µM (inactive); in the assay with M14, > 73.1 µM (inactive); in the assay with COLO 205 it was > 51.5 µM (inactive); with K562 it was 12.5 µM (inactive); in the assay on HT-29, > 39.4 µM (inactive).

`CCCCCCCCC[C@@H]1CC(=O)OCC2OC(O[C@H](CCCCCCCCC)CC(=O)OCC3OC(O[C@H](CCCCCCCCC)CC(=O)OCC4OC(O1)C(O)C(O)C4O)C(O)C(O)C3O)C(O)C(O)C2O` (some centres undefined): the GI50 in the assay with 786-0 is 0.957 µM (active); in the assay with SF-268, 2.94 µM (inactive); in the assay with NCI-H522 it was 8.73 µM (inactive); with NCI-H23 it was 16 µM (inactive); with SK-MEL-28, 6.62 µM (inactive); with HOP-92, 7.05 µM (inactive). Moreover, the GI50 in the assay on U-251 is 8.28 µM (inactive); with SW-620 it was 5.83 µM (inactive); in the assay with ACHN, 13.2 µM (inactive); in the assay with OVCAR-8, 14.3 µM (inactive); in the assay on KM12, 6.5 µM (inactive); in the assay with NCI-H226, 3.9 µM (inactive). For the same compound, the GI50 with M14 is 4.97 µM (inactive); in the assay with COLO 205, 2.52 µM (inactive); in the assay with K562, 3.47 µM (inactive); in the assay with HT-29, 11.9 µM (inactive).

Regarding `COCCOCOC(C)(C)[C@H](CCOC(C)=O)O[Si](c1ccccc1)(c1ccccc1)C(C)(C)C`, the GI50 is 18 µM (inactive) in the assay on 786-0; 34.6 µM (inactive) in the assay on SF-268; 5.52 µM (inactive) with NCI-H522; 10.5 µM (inactive) in the assay on NCI-H23; 56.5 µM (inactive) in the assay on SK-MEL-28; 5.61 µM (inactive) with HOP-92. Further, the GI50 was 12.3 µM (inactive) with U-251; 28.1 µM (inactive) in the assay on SW-620; 15.2 µM (inactive) with ACHN; 11.9 µM (inactive) in the assay with OVCAR-8; 15.4 µM (inactive) with KM12; 3.72 µM (inactive) in the assay on NCI-H226. The GI50 with M14 is 14.1 µM (inactive); in the assay on COLO 205, 3.44 µM (inactive); in the assay on K562, 5.75 µM (inactive); in the assay with HT-29, 12.9 µM (inactive).

For the compound `C[C@]12CCC(=O)C=C1CC[C@@H]1[C@@H]2C(=O)C[C@@]2(C)[C@H]1CC[C@]2(O)C(=O)CO` [CORTISONE], the GI50 in the assay with 786-0, with SF-268, in the assay with NCI-H522, with NCI-H23, in the assay on SK-MEL-28 and with HOP-92 was > 100 µM (inactive) throughout. For the same compound, the GI50 in the assay on U-251, with SW-620, with ACHN, in the assay with OVCAR-8, in the assay with KM12 and in the assay on NCI-H226 was > 100 µM (inactive) throughout. The GI50 with M14, with COLO 205, in the assay with K562 and in the assay on HT-29 was > 100 µM (inactive) in each case.

As to `O=C(/C=C/c1ccco1)c1ccc(NCc2nc3ccccc3[nH]2)cc1`, the GI50 in the assay with 786-0 was 14.6 µM (inactive); with SF-268 it was 20 µM (inactive); with NCI-H522, 9.62 µM (inactive); in the assay with NCI-H23 it was 13.5 µM (inactive); in the assay on SK-MEL-28, 18 µM (inactive); with HOP-92 it was 12.2 µM (inactive). The GI50 is 10.9 µM (inactive) in the assay on U-251; 16 µM (inactive) with SW-620; 17.5 µM (inactive) with ACHN; 17.9 µM (inactive) in the assay with OVCAR-8; 10.3 µM (inactive) with KM12; 1.73 µM (inactive) with NCI-H226. Besides, the GI50 was 16.9 µM (inactive) in the assay with M14, 13.5 µM (inactive) in the assay with COLO 205, 15.2 µM (inactive) with K562 and 19.8 µM (inactive) in the assay with HT-29.

In the case of `CC(=O)c1cn(-c2ccc(Cl)cc2)c(=O)c2c(N)n[nH]c12`, the GI50 in the assay with 786-0, with SF-268, with NCI-H23, with SK-MEL-28, with PC-3 and in the assay with DU-145 was > 100 µM (inactive) throughout. In addition, the GI50 in the assay with U-251 is > 100 µM (inactive); with SW-620 it was > 100 µM (inactive); with ACHN it was 25.6 µM (inactive); in the assay with OVCAR-8, > 100 µM (inactive); in the assay on KM12 it was > 100 µM (inactive); in the assay with NCI/ADR-RES it was > 100 µM (inactive). The GI50 is > 100 µM (inactive) in the assay with NCI-H226, > 100 µM (inactive) in the assay with COLO 205, 22.3 µM (inactive) in the assay on K562 and > 100 µM (inactive) with HT-29.

Consider `Cn1ccnc1CCc1ccc(Cl)cc1Cl`, for which the GI50 was > 100 µM (inactive) with 786-0; > 100 µM (inactive) in the assay on SF-268; > 100 µM (inactive) with NCI-H522; > 100 µM (inactive) in the assay on NCI-H23; > 100 µM (inactive) in the assay with SK-MEL-28; 49.9 µM (inactive) in the assay on HOP-92. For the same compound, the GI50 with U-251, with SW-620, with ACHN, in the assay on OVCAR-8, in the assay with KM12 and in the assay on NCI-H226 was > 100 µM (inactive) throughout. Also, the GI50 in the assay on M14 was > 100 µM (inactive); in the assay with COLO 205, > 100 µM (inactive); with K562, > 100 µM (inactive); in the assay with HT-29, 79.4 µM (inactive).
